Assay results: publication PMC5187867, “Crystal Structure of a Putative Cytochrome P450 Alkane Hydroxylase (CYP153D17) from Sphingomonas sp. PAMC 26605 and Its Conformational Substrate Binding” (International Journal of Molecular Sciences, 2016)

Target: CYP153D17 (Sphingomonas sp. PAMC 26605, UniProt A0ACD6BAR9)
Assay: UV-Vis spectral binding titration (substrate binding assay) of purified CYP153D17
Details: 1 μM CYP153D17; for Kd: apparent dissociation constant from titration curves (A390-A420); for Spin Shift (%): shift in heme spin state from low-spin (Soret maximum at 420 nm) to high-spin (390 nm)
Procedure: To determine the binding affinity of CYP153D17, spectral binding titrations were performed with the alkanes (decane and dodecane) and fatty acids (capric acid, lauric acid, and myristic acid). All tested substrates changed the spectrum of CYP153D17, with a shift of the Soret band at 420 to 390 nm, which is typical of the high-spin form (Figure 2), after which the apparent dissociation constants from the titration curves (Kd values) were obtained (Table 1). Dodecane, capric acid, and lauric acid binding to CYP153D17 induced a ≥90% shift in the heme spin state from low-spin (Soret maximum at 420 nm) to high-spin (Soret maximum at 390 nm), whereas decane and myristic acid induced a ≥80% shift in the same heme spin state.
To determine whether CYP153D17 can bind alkanes and fatty acids, a UV-Vis (Ultraviolet-Visible) spectral binding titration assay was performed. Binding of the substrate to CYP153D17 induced a shift of the Soret band of the CYP absorption spectrum from A420 to A390 [30]. Alkanes (decane and dodecane) and fatty acids (capric acid, lauric acid, and myristic acid) were dissolved in ethanol to prepare stock solutions of different concentrations (0.4–5 mM) for each substrate. Binding of substrate to CYP153D17 was carried out by the consecutive addition of 1-μL aliquots from the stock solutions to 1 mL of 1 μM CYP153D17 solution, and the UV–Vis spectra of the mixture were recorded. To calculate Kd, the difference between adsorption at A390 and A420 was calculated, corrected with the A390-to-A420 value at 0 M substrate, and plotted against the substrate concentrations. The data were fitted to equations as described by Funhoff et al..

Sequence of CYP153D17 (A0ACD6BAR9 1-407): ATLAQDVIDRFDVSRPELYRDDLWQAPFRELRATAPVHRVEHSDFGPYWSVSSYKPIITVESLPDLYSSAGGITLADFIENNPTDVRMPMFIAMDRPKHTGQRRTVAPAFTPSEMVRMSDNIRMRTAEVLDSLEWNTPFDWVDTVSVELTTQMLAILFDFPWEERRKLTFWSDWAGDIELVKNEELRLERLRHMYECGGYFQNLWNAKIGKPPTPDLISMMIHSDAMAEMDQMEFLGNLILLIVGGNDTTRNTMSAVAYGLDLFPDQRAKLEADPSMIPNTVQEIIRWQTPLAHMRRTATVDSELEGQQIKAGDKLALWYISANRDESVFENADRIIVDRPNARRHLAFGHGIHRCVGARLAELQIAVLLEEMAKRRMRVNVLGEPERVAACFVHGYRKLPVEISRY

Row | Structure (SMILES) | Kd | Spin Shift (%) | Spin Shift (%) (listed as capric acid) | Spin Shift (%) (listed as decane) | Spin Shift (%) (listed as lauric acid) | Spin Shift (%) (listed as myristic acid)
1 | CCCCCCCCCC(=O)O [Capric acid, capric acid] | 460 ± 410 nM | ≥90% | ≥ 90% | – | – | –
2 | CCCCCCCCCC [Decane, decane] | 590 ± 690 nM | ≥80% | – | ≥ 80% | – | –
3 | CCCCCCCCCCCC [Dodecane, dodecane] | 420 ± 140 nM | – | – | – | – | –
4 | CCCCCCCCCCCC(=O)O [Lauric acid, lauric acid] | 490 ± 700 nM | ≥90% | – | – | ≥ 90% | –
5 | CCCCCCCCCCCCCC(=O)O [Myristic acid, myristic acid] | 540 ± 330 nM | ≥80% | – | – | – | ≥ 80%
